Measurements taken from PMC9551036, “A selective and orally bioavailable VHL-recruiting PROTAC achieves SMARCA2 degradation in vivo” (Nature Communications, 2022).
Values after ≈ are worked out from the molar mass of the structure shown. Values joined by “and” are separate entries in the source; they are usually repeats but may differ in a detail not shown here. Identical values can stand only once. Like-named read-outs stand apart in the source and are kept apart here.

Key:
Solubility testing = assay type: physicochemical; conditions: for solubility at 24 h: buffer, kinetic from dmso stock
Procedure: Dilution into a 1:1 mixture of acetonitrile and water was used as reference. After 24 h, the incubations were filtrated, and the filtrate was analyzed by LC-UV.

PBRM1BD5 [1] = assay: TR-FRET ternary complex affinity and cooperativity, PBRM1; assay type: binding; conditions: ratio TR-FRET EC50 / TR-FRET EC50 +VCB measured in the same run, PBRM1BD5
PBRM1BD5 [2] = target: T1, PBRM1BD5 (Homo sapiens, UniProt P40337+Q86U86); assay: as above; assay type: binding; conditions: TR-FRET competition for PBRM1BD5, + VCB; mean ± SD; read-out: TR-FRET Ternary PBRM1BD EC50 (PROTAC + VCB)
T1 construct: GST (TEV site) (N); His6 (TEV site) (N, cleaved yes); made in house; host or cells: PBRM1^BD5: Escherichia coli BL21(DE3)

[3] = test system: VCB: PROTAC: SMARCA4^BD ternary complex; assay: TR-FRET ternary complex affinity and cooperativity, SMARCA4; assay type: binding, human; conditions: ratio TR-FRET EC50 / TR-FRET EC50 +VCB measured in the same run, SMARCA4BD
Microsomal stability = assay type: in vitro ADME; conditions: for Mic. Stab. Mouse / Mic. Stab. Mouse QH: mouse liver microsomes; for Mic. Stab. Rat / Mic. Stab. Rat QH: rat liver microsomes
Procedure: […] Reactions were terminated by addition of acetonitrile and precipitates separated by centrifugation. Compound concentrations in supernatants were measured by HPLC-MS/MS and clearance was calculated from compound half-lives using the well-stirred liver model.

[4] = target: VCB: PROTAC: SMARCA2^BD ternary complex (Homo sapiens, UniProt P40337+P51531); assay: SPR ternary complex measurement, VCB immobilised, 10 µM SMARCA2^BD present; assay type: binding; set-up: P51531-2, residues 1373-1493 with additional N-terminal SM residues; His6 (TEV site) (N, cleaved yes); GST (TEV site) (N, cleaved yes); made in house; host or cells: SMARCA2^BD: Escherichia coli BL21(DE3); conditions: for Kd: SPR; for alpha: cooperativity, SMARCA2, ratio of KD values measured in the same run
Procedure: SPR data were acquired on Biacore 8K or T200 instruments (Cytiva). Target proteins were immobilised at 25 °C on CM5 chips by amine coupling (EDC/NHS, Cytiva) in HBS-P+ running buffer (pH 7.4), containing 2 mM TCEP. […] The reference surface was subsequently deactivated using 1 M ethanolamine. […] Biotinylated VCB was prepared as previously described[27]: in brief, the complex was mixed 1:1 with EZ-Link NHS–PEG4–biotin (Thermo Scientific) and incubated at room temperature for 1 h. Unreacted NHS-biotin was removed using a PD-10 desalting column (Cytiva) into 20 mM HEPES, pH 7.5, 150 mM sodium chloride and 1 mM DTT. The reference surface was generated by deactivating the EDC/NHS-treated surface with 1 M ethanolamine. All interaction experiments were done at 6 °C in running buffer (20 mM TRIS, pH 8.3, 150 mM potassium chloride, 2 mM magnesium chloride, 2 mM TCEP, 0.005% TWEEN 20, 1% dimethyl sulfoxide). For ternary complex measurements, a sensor chip surface with VCB immobilised was used (preparation as described above). Experiments were run in dual-inject mode with 10 µM SMARCA present during the injection and dissociation phase. Sensorgrams from reference surfaces and blank injections were subtracted from the raw data prior to data analysis using Biacore Insight software. Affinity and binding kinetic parameters were determined by global fitting using the 1:1 interaction model with a term for mass-transport included.

[5] = pH 4.5, aqueous buffer, pH 4.5, read-out: Solubility pH 4.5
[6] = pH 6.8, aqueous buffer, pH 6.8, read-out: Solubility pH 6.8
[7] = ternary complex with SMARCA2BD, mean ± SD

VCB: PROTAC: SMARCA2^BD ternary complex, sequence (P40337 54-213): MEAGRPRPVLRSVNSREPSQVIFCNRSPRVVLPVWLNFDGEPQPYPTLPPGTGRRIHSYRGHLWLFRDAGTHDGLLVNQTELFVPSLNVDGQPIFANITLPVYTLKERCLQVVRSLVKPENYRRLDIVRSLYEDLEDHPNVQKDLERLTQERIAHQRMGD
VCB: PROTAC: SMARCA2^BD ternary complex, sequence (Q15369 17-112 partner limits assumed): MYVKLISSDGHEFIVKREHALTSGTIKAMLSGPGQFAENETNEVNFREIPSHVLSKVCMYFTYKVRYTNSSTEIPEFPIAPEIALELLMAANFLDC
VCB: PROTAC: SMARCA2^BD ternary complex, sequence (Q15370 1-104 partner limits assumed): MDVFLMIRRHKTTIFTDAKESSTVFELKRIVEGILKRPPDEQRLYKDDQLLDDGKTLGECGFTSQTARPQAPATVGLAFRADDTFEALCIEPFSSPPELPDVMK
VCB: PROTAC: SMARCA2^BD ternary complex, sequence (P51531 1373-1493 isoform P51531-2): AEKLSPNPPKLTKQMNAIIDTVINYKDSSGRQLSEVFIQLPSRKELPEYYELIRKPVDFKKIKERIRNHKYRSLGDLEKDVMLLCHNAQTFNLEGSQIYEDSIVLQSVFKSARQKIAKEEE
T1 sequence (Q86U86 645-766): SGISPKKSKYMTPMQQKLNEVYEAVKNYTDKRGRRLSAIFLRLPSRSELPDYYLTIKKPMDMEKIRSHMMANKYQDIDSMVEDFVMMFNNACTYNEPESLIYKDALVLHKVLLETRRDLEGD
T1 sequence (P40337 54-213): as the sequence (P40337 54-213) above
T1 sequence (Q15369 17-112 partner): as the sequence (Q15369 17-112 partner limits assumed) above
T1 sequence (Q15370 1-104 partner): as the sequence (Q15370 1-104 partner limits assumed) above

| Structure (SMILES) | solubility at 24 h (Solubility testing; [5]) | solubility at 24 h (Solubility testing; [6]) | cooperativity α (PBRM1BD) (PBRM1BD5 [1]) | EC50 (PBRM1BD5 [2]) | cooperativity α (SMARCA4BD) [3] | Mic. Stab. Human (Microsomal stability; human liver microsomes) | Mic. Stab. Human QH (Microsomal stability; human liver microsomes) | Mic. Stab. Mouse (Microsomal stability) | Mic. Stab. Mouse QH (Microsomal stability) | Mic. Stab. Rat (Microsomal stability) | Mic. Stab. Rat QH (Microsomal stability) | Kd [4, 7] | Kd ([4]; ternary, individual replicates) | alpha [4] | Solubility pH 4.5 (Solubility testing; pH 4.5) | Solubility pH 6.8 (Solubility testing; pH 6.8) | Mic. Stab. Human degradation without NADPH (Microsomal stability; human liver microsomes, without NADPH) |
| --- | --- | --- | --- | --- | --- | --- | --- | --- | --- | --- | --- | --- | --- | --- | --- | --- | --- |
| Cc1ncsc1-c1ccc(C(CCC(C)CCN2CCC(c3ccc4c(c3)n(C3CCCC3)c3nc(=O)c5c(Br)cccc5n43)CC2)NC(=O)C2CC(O)CN2C(=O)C(NC(=O)C2(F)CC2)C(C)(C)C)cc1 (stereo not shown) [ACBI2] | < 1 µg/mL | < 1 µg/mL | 13.8 ± 1.5 | 0.005 ± 0.001 µM | 3.7 ± 0.8 | <24 % QH | <24.400 <24.400 <24.400 <24.400% | <24 % QH | <24.200 <24.200 <24.200 <24.200% | <23 % QH | <23.100 <23.100 <23.100 <23.100% | 0.044 ± 0.011 µM | 0.0358 µM and 0.056 µM and 0.0411 µM | 0.8 | – | – | – |
| O=c1nc2n(C3CCCC3)c3ccccc3n2c2cccc(Br)c12 [compound 1] | < 1 µg/mL | < 1 µg/mL | – | 0.131 ± 0.008 µM | – | – | 87.940% and 88.090% | – | 86.850% | – | 87.000% and 86.360% | – | – | – | – | – | – |
| Nc1cccc2c1c(=O)nc1n(C3CCCC3)c3ccccc3n21 [compound 2] | < 1 µg/mL | < 1 µg/mL | – | 0.959 ± 0.053 µM | – | – | 91.040% | – | – | – | 88.170% | – | – | – | – | – | – |
| CN1CCC(c2ccc3c(c2)n(C2CCCC2)c2nc(=O)c4c(Br)cccc4n32)CC1 [compound 3] | > 110 µg/mL | > 100 µg/mL | – | 0.031 ± 0.011 µM | – | <24 % QH | <24.400% | 43 ± 10 % QH | 34.400% and 53.600% and 50.410% | 28 ± 1 % QH | < 23.100% and 27.400% and 28.840% | – | – | – | > 100.000 ug/mL | > 110.000 ug/mL and 94.000 ug/mL | – |
| Cc1ncsc1-c1ccc([C@H](COC(C)CN2CCC(c3ccc4c(c3)n(C3CCCC3)c3nc(=O)c5c(Br)cccc5n43)CC2)NC(=O)[C@@H]2C[C@@H](O)CN2C(=O)[C@@H](NC(=O)C2(F)CC2)C(C)(C)C)cc1 (stereo partly shown) [compound 9] | 14 µg/mL (≈ 13.3 µM) | < 1 µg/mL | 5.5 ± 1.7 | 0.007 ± 0.003 µM | 2.2 ± 0.2 | 55 ± 1 % QH | 54.100% and 55.600% | 27 ± 3 % QH | 24.700% and 28.800% and < 24.200% | <23 % QH | <23.100 <23.100 <23.100% | 0.21 ± 0.083 µM | 0.132 µM and 0.298 µM and 0.201 µM | 0.2 | – | – | – |
| Cc1ncsc1-c1ccc([C@H](COC(C)CN2CCC(c3ccc4c(c3)n(C3CCCC3)c3nc(=O)c5c(Br)cccc5n43)CC2)NC(=O)[C@@H]2C[C@@H](O)CN2C(=O)[C@@H](NC(=O)C2(N(C)C)CC2)C(C)(C)C)cc1 (stereo partly shown) [compound 10] | 210 µg/mL (≈ 195 µM) | < 1 µg/mL | 4.2 ± 0.4 | 0.008 ± 0.001 µM | 2.6 ± 0.8 | 86 % QH | 85.500% | 68 ± 2 % QH | 66.900% and 69.700% | 51 ± 2 % QH | 49.700% and 52.900% | 0.159 ± 0.08 µM | 0.074 µM and 0.233 µM and 0.171 µM | 0.8 | – | 2.000 ug/mL | – |
| Cc1ncsc1-c1ccc([C@H](CC[C@H](C)CCN2CCC(c3ccc4c(c3)n(C3CCCC3)c3nc(=O)c5c(Br)cccc5n43)CC2)NC(=O)[C@@H]2C[C@H](O)CN2C(=O)[C@@H](NC(=O)C2(F)CC2)C(C)(C)C)cc1 [compound 12] | < 1 µg/mL | < 1 µg/mL | 1.0 ± 0.0 | 0.078 ± 0.007 µM | 0.9 ± 0.1 | <24 % QH | 31.400% | <24 % QH | <24.200 NADPH control off limits % | <23 % QH | <23.100% | – | – | – | – | – | 60% |
| CN1CCN(c2nc(=O)c3c(Cl)cccc3o2)CC1 [compound 13] | – | – | – | – | – | – | – | – | – | – | – | – | – | – | >70.000 ug/mL | >71.000 ug/mL | – |
| CN1CCN(c2nc(=O)c3c(Br)cccc3o2)CC1 [compound 15] | – | – | – | – | – | – | – | – | – | – | – | – | – | – | >83.000 ug/mL | >82.000 ug/mL | – |
| CN1CCN(c2nc(=O)c3c(I)cccc3o2)CC1 [compound 16] | – | – | – | – | – | – | – | – | – | – | – | – | – | – | >97.000 ug/mL | >97.000 ug/mL | – |
| Cc1ncsc1-c1ccc(CNC(=O)[C@@H]2C[C@H](O)CN2C(=O)[C@@H](NC(=O)C2(F)CC2)C(C)(C)C)c(OCCN2CCC(c3ccc4c(c3)n(C3CCCC3)c3nc(=O)c5c(Br)cccc5n43)CC2)c1 [compound 19] | – | – | 1.0 ± 0.1 | 0.04 ± 0.001 µM | 0.9 ± 0.1 | 82 % QH | 81.450% | 68 % QH | 67.500% | 28 % QH | 27.950% | – | – | – | <1.000 ug/mL | <1.000 ug/mL | – |
| Cc1ncsc1-c1ccc(CNC(=O)[C@@H]2C[C@@H](O)CN2C(=O)[C@@H](NC(=O)C2(F)CC2)C(C)(C)C)c(OCCOCCOCCOCCN2CCC(c3ccc4c(c3)n(C3CCCC3)c3nc(=O)c5c(Br)cccc5n43)CC2)c1 [compound 22] | – | – | 2.6 ± 0.1 | 0.038 ± 0.005 µM | 9.1 ± 0.7 | 83 ± 13 % QH | 92.060% and 73.150% | 58 % QH | 57.720% | 40 % QH | 40.440% | 0.077 ± 0.014 µM | 0.0662 µM and 0.0924 µM and 0.0713 µM | 0.5 | – | – | – |
